Data published in patent US20140005214A1, “PIPERIDINONE CARBOXAMIDE SPIROHYDANTOIN CGRP RECEPTOR ANTAGONISTS” (priority 2011, published 2014).

target: T1, recombinant human CL receptor/RAMP1 (Homo sapiens, UniProt O60894+Q16602); experiment: Recombinant receptor binding assay (125I-hCGRP); details: membranes of HEK 293 cells expressing recombinant human CL receptor/RAMP1; 10 pM 125I-hCGRP
T1 construct: expressed in transfected cells; membranes
Experimental: RECOMBINANT RECEPTOR: Human CL receptor (Genbank accession number L76380) was subcloned into the expression vector pIREShyg2 (BD Biosciences Clontech) as a 5′NheI and 3′ PmeI fragment. Human RAMP1 (Genbank accession number AJ001014) was subcloned into the expression vector pIRESpuro2 (BD Biosciences Clontech) as a 5′NheI and 3′NotI fragment. HEK 293 cells (human embryonic kidney cells; ATCC #CRL-1573) were cultured in DMEM with 4.5 g/L glucose, 1 mM sodium pyruvate and 2 mM glutamine supplemented with 10% fetal bovine serum (FBS), 100 units/mL penicillin and 100 μg/mL streptomycin, and maintained at 37° C. and 95% humidity. Cells were subcultured by treatment with 0.25% trypsin with 0.1% EDTA in HBSS. Stable cell line generation was accomplished by co-transfecting 10 μg of DNA with 30 μg Lipofectamine 2000 (Invitrogen) in 75 cm^2 flasks. CL receptor and RAMP1 expression constructs were co-transfected in equal amounts. Twenty-four hours after transfection the cells were diluted and selective medium (growth medium+[…] hygromycin and 1 μg/mL puromycin) was added the following day. A clonal cell line was generated by single cell deposition utilizing a FACS Vantage SE (Becton Dickinson). Growth medium was adjusted to 150 μg/mL hygromycin and 0.5 μg/mL puromycin for cell propagation.
RECOMBINANT RECEPTOR BINDING ASSAY: Cells expressing recombinant human CL receptor/RAMP1 were washed with PBS and harvested in harvest buffer containing 50 mM HEPES, 1 mM EDTA and Complete™ protease inhibitors (Roche). The cell suspension was disrupted with a laboratory homogenizer and centrifuged at 48,000 g to isolate membranes. The pellets were resuspended in harvest buffer plus 250 mM sucrose and stored at −70° C. For binding assays, 20 μg of membranes were incubated in 1 mL binding buffer (10 mM HEPES, pH 7.4, 5 mM MgCl2, and 0.2% BSA) for 3 h at room temperature containing 10 pM ^125I-hCGRP (GE Healthcare) and antagonist. The assay was terminated by filtration through 96-well GFB glass fiber filter plates (PerkinElmer) that had been blocked with 0.05% polyethyleneimine. The filters were washed 3 times with ice-cold assay buffer (10 mM HEPES, pH 7.4, and 5 mM MgCl2). Scintillation fluid was added and the plates were counted on a Topcount (Packard). Non-specific binding was determined and the data analysis was carried out with the apparent dissociation constant (Ki) determined by using a non-linear least squares fitting the bound CPM data to the equation below: […]
Where Y is observed CPM bound, Ymax is total bound counts, Ymin is non specific bound counts, (Ymax−Ymin) is specific bound counts, % Imax is the maximum percent inhibition, % I min is the minimum percent inhibition, radiolabel is the probe, and the Kd is the apparent dissociation constant for the radioligand for the receptor as determined by hot saturation experiments.

T1 sequence (Q16602 23-461): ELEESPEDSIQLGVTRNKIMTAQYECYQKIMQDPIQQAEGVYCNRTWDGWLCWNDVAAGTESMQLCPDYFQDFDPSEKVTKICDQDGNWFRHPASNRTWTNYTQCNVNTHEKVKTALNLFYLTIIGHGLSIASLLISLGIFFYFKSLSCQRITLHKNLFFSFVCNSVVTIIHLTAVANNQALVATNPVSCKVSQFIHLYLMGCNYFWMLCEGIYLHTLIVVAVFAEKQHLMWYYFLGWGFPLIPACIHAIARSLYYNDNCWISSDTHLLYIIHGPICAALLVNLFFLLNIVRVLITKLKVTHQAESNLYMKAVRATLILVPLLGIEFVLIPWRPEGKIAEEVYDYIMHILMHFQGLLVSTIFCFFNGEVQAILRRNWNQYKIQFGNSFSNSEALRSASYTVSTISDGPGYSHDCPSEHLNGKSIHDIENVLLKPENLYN
T1 sequence (O60894 27-148): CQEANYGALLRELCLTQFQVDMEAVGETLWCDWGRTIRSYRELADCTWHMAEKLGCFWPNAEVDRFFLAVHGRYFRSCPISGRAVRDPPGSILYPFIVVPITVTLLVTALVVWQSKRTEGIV

SMILES | Ki
Cc1ccccc1[C@@H]1C[C@H](NC(=O)c2ccc3c(c2)C[C@@]2(C3)C(=O)NC(=O)N2C)C(=O)N(CC(F)(F)F)[C@@H]1C [Example 5] | 1.9 nM
Cc1c(F)cccc1[C@@H]1C[C@H](NC(=O)c2ccc3c(c2)C[C@@]2(C3)C(=O)NC(=O)N2C)C(=O)N(CC(F)(F)F)[C@@H]1C [Example 7] | 0.5 nM
Cc1cccc([C@@H]2C[C@H](NC(=O)c3ccc4c(c3)C[C@@]3(C4)C(=O)NC(=O)N3C)C(=O)N(CC(F)(F)F)[C@@H]2C)c1 [Example 6] | 1.8 nM
C[C@@H]1[C@H](c2ccccc2)C[C@H](NC(=O)c2ccc3c(c2)C[C@@]2(C3)C(=O)NC(=O)N2C)C(=O)N1CC(F)(F)F [Example 3] | 0.36 nM

Next, values leading:

Ki | SMILES
0.042 nM | C[C@@H]1[C@H](c2cc(F)cc(F)c2F)C[C@H](NC(=O)c2ccc3c(c2)C[C@@]2(C3)C(=O)NC(=O)N2C)C(=O)N1CC(F)(F)F [Example 1, (4S)-3-Methyl-N-[(3S,5S,6R)-6-methyl-2-oxo-1-(2,2,2-trifluoroethyl)-5-(2,3,5-trifluorophenyl)piperidin-3-yl]-2,5-dioxo-1′,3′-dihydrospiro[imidazolidine-4,2′-indene]-5′-carboxamide]
0.048 nM | C[C@@H]1[C@H](c2c(F)ccc(F)c2F)C[C@H](NC(=O)c2ccc3c(c2)C[C@@]2(C3)C(=O)NC(=O)N2C)C(=O)N1CC(F)(F)F [Example 2]
0.036 nM | C[C@@H]1[C@H](c2c(F)c(F)cc(F)c2F)C[C@H](NC(=O)c2ccc3c(c2)C[C@@]2(C3)C(=O)NC(=O)N2C)C(=O)N1CC(F)(F)F [Example 4]
